Measured values: patent US8053452B2, “Substituted isoxazoline or enone oxime compound, and pest control agent” (Nissan Chemical Industries, Ltd., priority 2007, dated 2011)
Where two headings read alike, the source gives them in different places. One block for each molecule: values may come before it.

Assays:
Nilaparvata lugens = assay: Mortality test for Nilaparvata lugens; type: in vivo; conditions: 144 h, drug solution 500 ppm, rice leaf sheath immersed, 2 instar larvae, after 6 days
Description: (§1) A 10% emulsifiable concentrate of the compound of the present invention (depending on the type of the compound, a 10% wettable powder was subjected to the test) was diluted with water containing a spreader to prepare a drug solution in a concentration of 500 ppm. In this drug solution, a leaf sheath of rice was immersed for about 10 seconds and was air-dried and then put into a test tube. In the test tube, five 2 instar larvae of Nilaparvata lugens per test tube were released and the test tube was capped with a sponge and stored in a thermostatic room of 25° C. The number of killed larvae after 6 days was counted and the mortality was calculated from the same calculation formula as that in Test Example 1. Here, the test was carried out with two replications.

Plutella xylostella = assay: Mortality test for Plutella xylostella; type: in vivo; conditions: 144 h
Description: A 10% emulsifiable concentrate of the compound of the present invention (depending on the type of the compound, a 10% wettable powder was subjected to the test) was diluted with water containing a spreader to prepare a drug solution in a concentration of 10 ppm. In this drug solution, a leaf of cabbage was immersed for about 10 seconds and was air-dried and then put into a petri dish. In the petri dish, five 2 instar larvae of Plutella xylostella per petri dish were released and the petri dish was capped and stored in a thermostatic room of 25° C. The number of killed larvae after 6 days was counted and the mortality was calculated from the following calculation formula: Mortality(%)=(number of killed larvae/number of released larvae)×100. Here, the test was carried out with two replications.

Spodoptera litura = assay: Mortality test for Spodoptera litura; type: in vivo; conditions: 144 h
Description: (§2) A 10% emulsifiable concentrate of the compound of the present invention (depending on the type of the compound, a 10% wettable powder was subjected to the test) was diluted with water containing a spreader to prepare a drug solution in a concentration of 10 ppm. In this drug solution, a leaf of cabbage was immersed for about 10 seconds and was air-dried and then put into a petri dish. In the petri dish, five 2 instar larvae of Spodoptera litura per petri dish were released and the petri dish was capped and stored in a thermostatic room of 25° C. The number of killed larvae after 6 days was counted and the mortality was calculated from the same calculation formula as that in Test Example 1. Here, the test was carried out with two replications.

Helicoverpa armigera = assay: Mortality test for Helicoverpa armigera; type: in vivo; conditions: 144 h, drug solution 100 ppm, cabbage leaf immersed, 2 instar larva, after 6 days
Description: as §2, with “of 100” for “of 10”, “dish, one” for “dish, five”, “instar larva” for “instar larvae”, “of Helicoverpa armigera” for “of Spodoptera litura”, “dish was” for “dish were”, “with 12” for “with two”

Aulacophora femoralis = assay: Mortality test for Aulacophora femoralis; type: in vivo; conditions: 144 h
Description: as §2, with “of 500” for “of 10”, “of cucumber” for “of cabbage”, “of Aulacophora femoralis” for “of Spodoptera litura”

Eysarcoris lewisi = assay: Mortality test for Eysarcoris lewisi; type: in vivo; conditions: 48 h, drug solution 500 ppm, rice leaf sheath immersed, 1 instar larvae, after 2 days
Description: as §1, with “five 1” for “five 2”, “of Eysarcoris lewisi” for “of Nilaparvata lugens”, “after 2” for “after 6”

Liriomyza trifolii = assay: Mortality test for Liriomyza trifolii; type: in vivo; conditions: 144 h, drug solution 500 ppm, kidney bean leaf with eggs immersed, killed larvae after 6 days
Description: as §1, with “leaf” for “leaf sheath”, “kidney bean on which Liriomyza trifolii laid eggs (10 eggs/leaf) and which was cut out to a diameter of 7 cm” for “rice”, “laid on” for “put into”, “wet filtration paper laid in a styrol cup having an inner diameter” for “test tube. In the test tube, five 2 instar larvae”, “7 cm. The styrol cup” for “Nilaparvata lugens per test tube were released and the test tube”, “capped” for “capped with a sponge”

Homona magnanima = assay: Mortality test for Homona magnanima; type: in vivo; conditions: 144 h, drug solution 100 ppm, cabbage leaf immersed, 2 instar larvae, after 6 days
Description: as §2, with “of 100” for “of 10”, “of Homona magnanima” for “of Spodoptera litura”

[1] = drug solution 100 ppm (mark *), cabbage leaf immersed, 2 instar larvae, after 6 days, read-out: mortality

SMILES: CON=CNC(=O)c1ccc(C2=NOC(c3cc(C(F)(F)F)cc(C(F)(F)F)c3)(C(F)(F)F)C2Br)cc1 (stereo not shown) [1-011, 4-(4-bromo-5-(3,5-bis(trifluoromethyl)phenyl)-5-trifluoromethyl-4,5-dihydroisoxazole-3-yl)-N-(methoxyiminomethyl)benzoic acid amide]
mortality at 500 ppm (Nilaparvata lugens): ≥ 80%
mortality at 100 ppm (Plutella xylostella; in Brassica oleracea): ≥ 80%
mortality at 100 ppm (Spodoptera litura; in Brassica oleracea): ≥ 80%

SMILES: CSc1ccc(C2=NOC(c3cc(Cl)cc(Cl)c3)(C(F)(F)F)C2Br)cc1 (stereo not shown) [4-002, 4-bromo-5-(3,5-dichlorophenyl)-3-(4-(methylthio)phenyl)-5-trifluoromethyl-4,5-dihydroisoxazole]
mortality at 500 ppm (Nilaparvata lugens): ≥ 80%
mortality at 100 ppm (Helicoverpa armigera): ≥ 80%
mortality at 100 ppm (Plutella xylostella; in Brassica oleracea): ≥ 80%
mortality at 100 ppm (Spodoptera litura; in Brassica oleracea): ≥ 80%

SMILES: CC1C(c2ccc(CN(C)C(=O)C3CC3)c(Br)c2)=NOC1(c1cc(Cl)cc(Cl)c1)C(F)(F)F (stereo not shown) [2-005, N-(2-bromo-4-(5-(3,5-dichlorophenyl)-4-methyl-5-trifluoromethyl-4,5-dihydroisoxazole-3-yl)phenylmethyl)-N-(methyl)cyclopropanecarboxamide]
mortality at 500 ppm (Plutella xylostella; in Brassica oleracea): ≥ 80%
mortality at 500 ppm (Spodoptera litura; in Brassica oleracea): ≥ 80%

SMILES: Cc1cc(C(/C=C(\c2cc(Cl)cc(Cl)c2)C(F)(F)F)=NO)ccc1C(=O)NCC(F)(F)F [6-001, 4-((2E)-3-(3,5-dichlorophenyl)-4,4,4-trifluoro-1-(hydroxyimino)-2-butenyl)-2-methyl-N-(2,2,2-trifluoroethyl)benzoic acid amide]
mortality at 500 ppm (Plutella xylostella; drug solution 500 ppm (mark **), cabbage leaf immersed, 2 instar larvae, after 6 days, read-out: mortality): ≥ 80%
mortality at 500 ppm (Aulacophora femoralis; drug solution 500 ppm, cucumber leaf immersed, 2 instar larvae, after 6 days, read-out: mortality): ≥ 80%

melting point: 190 to 193 °C
SMILES: NC(=O)c1ccc(C2=NOC(c3cc(C(F)(F)F)cc(C(F)(F)F)c3)(C(F)(F)F)C2Br)cc1 (stereo not shown)

SMILES: Cc1cc(C(/C=C(/c2cc(Cl)cc(Cl)c2)C(F)(F)F)=NO)ccc1C(=O)NCC(F)(F)F [5-001, 4-((2Z)-3-(3,5-dichlorophenyl)-4,4,4-trifluoro-1-(hydroxyimino)-2-butenyl)-2-methyl-N-(2,2,2-trifluoroethyl)benzoic acid amide]
mortality at 100 ppm (Plutella xylostella; [1]): ≥ 80%
mortality at 100 ppm (Spodoptera litura; [1]): ≥ 80%

SMILES: CSC1C(c2ccc(C(=O)NCC(F)(F)F)c(C)c2)=NOC1(c1cc(Cl)cc(Cl)c1)C(F)(F)F (stereo not shown) [1-005, 4-(5-(3,5-dichlorophenyl)-4-methylthio-5-trifluoromethyl-4,5-dihydroisoxazole-3-yl)-2-methyl-N-(2,2,2-trifluoroethyl)benzoic acid amide]
mortality at 100 ppm (Plutella xylostella; in Brassica oleracea): ≥ 80%
mortality at 100 ppm (Spodoptera litura; in Brassica oleracea): ≥ 80%

SMILES: Cc1cc(C2=NOC(c3cc(Cl)cc(Cl)c3)(C(F)(F)F)C2Br)ccc1C(=O)NCC(F)(F)F (stereo not shown) [1-003, 4-(4-bromo-5-(3,5-dichlorophenyl)-5-trifluoromethyl-4,5-dihydroisoxazole-3-yl)-2-methyl-N-(2,2,2-trifluoroethyl)benzoic acid amide]
mortality at 500 ppm (Nilaparvata lugens): ≥ 80%
mortality at 100 ppm (Plutella xylostella; in Brassica oleracea): ≥ 80%
mortality at 500 ppm (Aulacophora femoralis; in Cucumis sativus): ≥ 80%
mortality at 500 ppm (Eysarcoris lewisi): ≥ 80%
mortality at 500 ppm (Liriomyza trifolii): ≥ 80%
mortality at 100 ppm (Spodoptera litura; in Brassica oleracea): ≥ 80%

SMILES: O=C(NCc1ccc(C2=NOC(c3cc(Cl)cc(Cl)c3)(C(F)(F)F)C2Br)cc1Br)C1CC1 (stereo not shown) [2-002, N-(2-bromo-4-(4-bromo-5-(3,5-dichlorophenyl)-5-trifluoromethyl-4,5-dihydroisoxazole-3-yl)phenylmethyl)cyclopropylcarboxamide]
mortality at 500 ppm (Nilaparvata lugens): ≥ 80%

SMILES: Cc1cc(C2=NOC(c3cc(Cl)cc(Cl)c3)(C(F)(F)F)C2Cl)ccc1C(=O)NCC(F)(F)F (stereo not shown) [1-002, 4-(4-chloro-5-(3,5-dichlorophenyl)-5-trifluoromethyl-4,5-dihydroisoxazole-3-yl)-2-methyl-N-(2,2,2-trifluoroethyl)benzoic acid amide]
mortality at 10 ppm (Plutella xylostella; in Brassica oleracea): ≥ 80%
mortality at 10 ppm (Spodoptera litura; in Brassica oleracea): ≥ 80%

SMILES: Cc1cc(C2=NOC(c3cc(Cl)cc(Cl)c3)(C(F)(F)F)C2C)ccc1C(=O)NCC(F)(F)F (stereo not shown) [1-004, 4-(5-(3,5-dichlorophenyl)-4-methyl-5-trifluoromethyl-4,5-dihydroisoxazole-3-yl)-2-methyl-N-(2,2,2-trifluoroethyl)benzoic acid amide]
mortality at 100 ppm (Homona magnanima): ≥ 80%
mortality at 100 ppm (Plutella xylostella; in Brassica oleracea): ≥ 80%
mortality at 500 ppm (Aulacophora femoralis; in Cucumis sativus): ≥ 80%
mortality at 500 ppm (Eysarcoris lewisi): ≥ 80%
mortality at 500 ppm (Liriomyza trifolii): ≥ 80%
mortality at 100 ppm (Spodoptera litura; in Brassica oleracea): ≥ 80%
